Values of other authors in US20220119489A1, “COMPOSITIONS AND METHODS FOR TREATING MUSCULAR DYSTROPHY AND RELATED DISORDERS” (CHILDREN'S MEDICAL CENTER CORPORATION, priority 2019, published 2022).

Assays:
CD82 [1] = details: stated as previously shown, no test described
CD82 [2] = details: Pompe disease patients under treatment

Molecule	expression of CD82 (CD82 [1])	increase of muscle CD82 expression compared to baseline levels (CD82 [2])
CC(=O)C(=O)[O-].[Na+] [sodium pyruvate]	increase expression of CD82	
recombinant human lysosomal acid alpha glucosidase: recombinant enzyme used to treat Pompe disease patients		25-50%
C[C@]12COC(=O)C[C@@H]1CC[C@@H]1[C@@H]2CC[C@@]2(C)[C@H]1CC[C@]2(C)O [oxandrolone]	increase expression of CD82	
